Experimental data published in PubChem BioAssay (NCI).
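Compound exposure: 48 hours, 5 concentrations, 96-well plates. At the GI50, growth is halved. TGI denotes the concentration required for complete inhibition of growth.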

Columns and labels:
Experiment in all cases: NCI tumour cell line growth inhibition, 48 h
[1] = system: A549 NSCLC
[2] = system: ACHN renal
[3] = system: BT-549 breast
[4] = system: CAKI-1 renal
[5] = system: CCRF-CEM leukemia
[6] = system: COLO 205 colon
[7] = system: DU-145 prostate
[8] = system: EKVX NSCLC
[9] = system: HCC-2998 colon
[10] = system: HCT-116 colon
[11] = system: HCT-15 colon
[12] = system: HL-60(TB) leukemia
[13] = system: HOP-92 NSCLC
[14] = system: HS 578T breast
[15] = system: HT29 colon
[16] = system: IGROV1 ovarian
[17] = system: K-562 leukemia
[18] = system: KM12 colon
[19] = system: M14 melanoma
[20] = system: MCF7 breast
[21] = system: MDA-MB-231 breast
[22] = system: MDA-MB-435
[23] = system: MOLT-4 leukemia
[24] = system: NCI-H23 lung
[25] = system: NCI-H460 lung
[26] = system: NCI-H522 lung
[27] = system: NCI/ADR-RES ovarian
[28] = system: OVCAR-3 ovarian
[29] = system: OVCAR-4 ovarian
[30] = system: OVCAR-5 ovarian
[31] = system: OVCAR-8 ovarian
[32] = system: RPMI-8226 leukemia
[33] = system: RXF 393 renal
[34] = system: SF-268 CNS
[35] = system: SF-295 CNS
[36] = system: SF-539 CNS
[37] = system: SK-MEL-2 melanoma
[38] = system: SK-MEL-28 melanoma
[39] = system: SK-MEL-5 melanoma
[40] = system: SK-OV-3 ovarian
[41] = system: SN12C renal
[42] = system: SNB-19 CNS
[43] = system: SNB-75 CNS
[44] = system: SR leukemia
[45] = system: SW-620 colon
[46] = system: T-47D breast
[47] = system: TK-10 renal
[48] = system: U251 CNS
[49] = system: UACC-257 melanoma
[50] = system: UACC-62 melanoma
[51] = system: UO-31 renal
[52] = system: 786-0 renal
[53] = system: A498 renal
[54] = system: HOP-62 NSCLC
[55] = system: MALME-3M melanoma
[56] = system: NCI-H226 lung
[57] = system: PC-3 prostate
[58] = system: LOX IMVI melanoma

CCOC(=O)/C(=N/Nc1ccc(C)cc1)N1C(=S)C=C(C)NN(C)C1=S
TGI [1]: > 100 µM
TGI [2]: > 100 µM
TGI [3]: > 100 µM
TGI [4]: > 100 µM
TGI [5]: > 100 µM
TGI [6]: > 100 µM
TGI [7]: > 100 µM
TGI [8]: > 100 µM
TGI [9]: > 100 µM
TGI [10]: > 100 µM
TGI [11]: > 100 µM
TGI [12]: > 100 µM
TGI [13]: > 100 µM
TGI [14]: > 100 µM
TGI [15]: > 100 µM
TGI [16]: > 100 µM
TGI [17]: > 100 µM
TGI [18]: > 100 µM
TGI [19]: > 100 µM
TGI [20]: > 100 µM
TGI [21]: > 100 µM
TGI [22]: > 100 µM
TGI [23]: > 100 µM
TGI [24]: > 100 µM
TGI [25]: > 100 µM
TGI [26]: > 100 µM
TGI [27]: > 100 µM
TGI [28]: > 100 µM
TGI [29]: > 100 µM
TGI [30]: > 100 µM
TGI [31]: > 100 µM
TGI [32]: > 100 µM
TGI [33]: 83.7 µM
TGI [34]: > 100 µM
TGI [35]: 39.3 µM
TGI [36]: > 100 µM
TGI [37]: > 100 µM
TGI [38]: > 100 µM
TGI [39]: > 100 µM
TGI [40]: > 100 µM
TGI [41]: > 100 µM
TGI [42]: > 100 µM
TGI [43]: > 100 µM
TGI [44]: > 100 µM
TGI [45]: > 100 µM
TGI [46]: > 100 µM
TGI [47]: > 100 µM
TGI [48]: 55.5 µM
TGI [49]: > 100 µM
TGI [50]: > 100 µM
TGI [51]: > 100 µM

COc1cc(/C=C2\CN(S(=O)(=O)c3ccc(C)cc3)C/C(=C\c3cc(CN4CCOCC4)c(O)c(OC)c3)C2=O)cc(CN2CCOCC2)c1O
GI50 [52]: 17.9 µM
TGI [52]: 59.4 µM
GI50 [53]: 12.4 µM
TGI [53]: 54.4 µM
GI50 [1]: 13 µM
TGI [1]: > 100 µM
GI50 [2]: 1.47 µM
TGI [2]: 22.5 µM
GI50 [3]: 17.6 µM
TGI [3]: 67.2 µM
GI50 [4]: 1.53 µM
TGI [4]: > 100 µM
GI50 [5]: 0.513 µM
TGI [5]: > 100 µM
GI50 [6]: 1.66 µM
TGI [6]: > 100 µM
GI50 [7]: 0.928 µM
TGI [7]: > 100 µM
GI50 [8]: 16.9 µM
TGI [8]: 92.5 µM
GI50 [9]: 2.05 µM
TGI [9]: 21.7 µM
GI50 [10]: 3.25 µM
TGI [10]: > 100 µM
GI50 [11]: 1.9 µM
TGI [11]: > 100 µM
GI50 [12]: 0.853 µM
TGI [12]: 27.4 µM
GI50 [54]: 0.652 µM
TGI [54]: 38 µM
GI50 [13]: 17.6 µM
TGI [13]: 71.8 µM
GI50 [14]: 0.721 µM
TGI [14]: 19.8 µM
GI50 [15]: 0.346 µM
TGI [15]: > 100 µM
GI50 [16]: 1.09 µM
TGI [16]: 22.8 µM
GI50 [17]: 0.561 µM
TGI [17]: > 100 µM
GI50 [18]: 0.377 µM
TGI [18]: 25.5 µM
GI50 [19]: 0.689 µM
TGI [19]: > 100 µM
GI50 [55]: 1.75 µM
TGI [55]: 65.8 µM
GI50 [20]: 0.394 µM
TGI [20]: > 100 µM
GI50 [21]: 2.27 µM
TGI [21]: 92.5 µM
GI50 [23]: 0.321 µM
TGI [23]: > 100 µM
GI50 [56]: 12.7 µM
TGI [56]: 85.8 µM
GI50 [24]: 3.31 µM
TGI [24]: > 100 µM
GI50 [25]: 0.337 µM
TGI [25]: 2.52 µM
GI50 [26]: 2.34 µM
TGI [26]: 32.6 µM
GI50 [27]: 55 µM
TGI [27]: > 100 µM
GI50 [28]: 0.611 µM
TGI [28]: > 100 µM
GI50 [29]: 4.11 µM
TGI [29]: > 100 µM
GI50 [30]: > 100 µM
TGI [30]: > 100 µM
GI50 [31]: 0.323 µM
TGI [31]: > 100 µM
GI50 [57]: 1.24 µM
TGI [57]: > 100 µM
GI50 [32]: 2.34 µM
TGI [32]: > 100 µM
GI50 [33]: 2.81 µM
TGI [33]: 29.5 µM
GI50 [34]: 0.935 µM
TGI [34]: 81.2 µM
GI50 [35]: 12.5 µM
TGI [35]: 40.2 µM
GI50 [36]: 7.21 µM
TGI [36]: 33 µM
GI50 [37]: 21.9 µM
TGI [37]: 65.1 µM
GI50 [38]: 4.85 µM
TGI [38]: > 100 µM
GI50 [39]: 4.15 µM
TGI [39]: > 100 µM
GI50 [40]: 7.89 µM
TGI [40]: 56.5 µM
GI50 [41]: 0.524 µM
TGI [41]: 15.5 µM
GI50 [42]: 15.8 µM
TGI [42]: > 100 µM
GI50 [43]: 0.527 µM
TGI [43]: 19.1 µM
GI50 [44]: 0.342 µM
TGI [44]: > 100 µM
GI50 [45]: 1.35 µM
TGI [45]: > 100 µM
GI50 [46]: 51.7 µM
TGI [46]: > 100 µM
GI50 [47]: 15.4 µM
TGI [47]: 59.8 µM
GI50 [48]: 0.782 µM
TGI [48]: > 100 µM
GI50 [49]: 2.06 µM
TGI [49]: > 100 µM
GI50 [50]: 0.586 µM
TGI [50]: 16.4 µM
GI50 [51]: 20.4 µM
TGI [51]: > 100 µM

CCOC(=O)C1=C(C)N=C2SC=C(c3ccccc3)N2[C@H]1c1cn[nH]c1-c1ccc(Cl)cc1
GI50 [52]: 5.2 µM
TGI [52]: 17 µM
GI50 [53]: 5.37 µM
TGI [53]: 18.2 µM
GI50 [1]: 6.73 µM
TGI [1]: 24.7 µM
GI50 [2]: 3.03 µM
TGI [2]: 11.7 µM
GI50 [3]: 3.84 µM
TGI [3]: 13.9 µM
GI50 [4]: 1.76 µM
TGI [4]: 3.56 µM
GI50 [5]: 3.12 µM
TGI [5]: 14 µM
GI50 [6]: 3.53 µM
TGI [6]: 15.1 µM
GI50 [7]: 6.12 µM
TGI [7]: 18.8 µM
GI50 [8]: 7.68 µM
TGI [8]: 22.3 µM
GI50 [9]: 6.24 µM
TGI [9]: 20.4 µM
GI50 [10]: 3.11 µM
TGI [10]: 13.3 µM
GI50 [11]: 3.19 µM
TGI [11]: 11.7 µM
GI50 [12]: 2.85 µM
TGI [12]: 7.98 µM
GI50 [54]: 7.09 µM
TGI [54]: 22 µM
GI50 [13]: 2.4 µM
TGI [13]: 8.7 µM
GI50 [14]: 3.68 µM
TGI [14]: 34.5 µM
GI50 [15]: 4.32 µM
TGI [15]: 13.7 µM
GI50 [16]: 2.33 µM
TGI [16]: 7.61 µM
GI50 [17]: 3.67 µM
TGI [17]: 23.2 µM
GI50 [18]: 4.69 µM
TGI [18]: 17.5 µM
GI50 [58]: 1.46 µM
TGI [58]: 3.43 µM
GI50 [19]: 4.37 µM
TGI [19]: 19.2 µM
GI50 [55]: 1.6 µM
TGI [55]: 3.45 µM
GI50 [20]: 2.7 µM
TGI [20]: 13.8 µM
GI50 [21]: 2.32 µM
TGI [21]: 7.96 µM
GI50 [22]: 4.07 µM
TGI [22]: 15.2 µM
GI50 [23]: 2.29 µM
TGI [23]: 7.41 µM
GI50 [56]: 8.25 µM
TGI [56]: 46.1 µM
GI50 [24]: 4.64 µM
TGI [24]: 19.6 µM
GI50 [25]: 3.36 µM
TGI [25]: 12.7 µM
GI50 [26]: 1.68 µM
TGI [26]: 3.44 µM
GI50 [27]: 5.97 µM
TGI [27]: 27.6 µM
GI50 [28]: 3.21 µM
TGI [28]: 12 µM
GI50 [29]: 4.66 µM
TGI [29]: 16.6 µM
GI50 [30]: 6.06 µM
TGI [30]: 19.9 µM
GI50 [31]: 4.46 µM
TGI [31]: 19.6 µM
GI50 [57]: 3.98 µM
TGI [57]: 17.3 µM
GI50 [32]: 2.65 µM
TGI [32]: 9.39 µM
GI50 [33]: 5.32 µM
TGI [33]: 19.1 µM
GI50 [34]: 3.65 µM
TGI [34]: 16.6 µM
GI50 [35]: 7.96 µM
TGI [35]: 22.2 µM
GI50 [36]: 5.68 µM
TGI [36]: 18 µM
GI50 [37]: 6.21 µM
TGI [37]: 19.3 µM
GI50 [38]: 4.92 µM
TGI [38]: 16.8 µM
GI50 [39]: 3.22 µM
TGI [39]: 12 µM
GI50 [40]: 7.39 µM
TGI [40]: 20.1 µM
GI50 [41]: 4.51 µM
TGI [41]: 17.3 µM
GI50 [42]: 7.65 µM
TGI [42]: 20.7 µM
GI50 [43]: 5.05 µM
TGI [43]: 18.3 µM
GI50 [45]: 3.84 µM
TGI [45]: 14.4 µM
GI50 [46]: 3.13 µM
TGI [46]: 22.4 µM
GI50 [47]: 10.2 µM
TGI [47]: 22.2 µM
GI50 [48]: 3.8 µM
TGI [48]: 16.4 µM
GI50 [49]: 10.1 µM
TGI [49]: 24.1 µM
GI50 [50]: 2.85 µM
TGI [50]: 12.5 µM
GI50 [51]: 1.39 µM
TGI [51]: 9.53 µM
